# Reference: patent US11465997B2, “Synthesis of disorazoles and analogs thereof as potent anticancer agents” (WILLIAM MARSH RICE UNIVERSITY, priority 2017, dated 2022)
# Like-named read-outs stand apart in the source and are kept apart here. Non-standard residues stand in square brackets, D forms with d. Residues, ends and D or L forms follow the SMILES beside them. *: point of attachment. Dolaproine = CO[C@@H]([C@@H]1CCCN1)[C@@H](C)C(=O)O; Dil = CC[C@H](C)[C@H](NC)[C@@H](CC(=O)O)OC; X1 = C[C@@H](N*)[C@@H](O)c1ccccc1; NMeV = CN[C@H](C(=O)O)C(C)C
# What was measured:
# [1] = 72 h killing (cytotoxicity) assay, HEK 293T; assay type: cell-based; details: human; 293T (HEK 293T) cells; read-out: Cytotoxic activity IC50
# [2] = tested on: MES SA uterine sarcoma cell line; experiment: 72 h killing (cytotoxicity) assay, MES SA; assay type: cell-based, human; details: MES SA cells, read-out: Cytotoxic activity IC50
# [3] = tested on: MES SA DX (MES SA cell line with marked multidrug resistance); experiment: 72 h killing (cytotoxicity) assay, MES SA DX; assay type: cell-based, human; details: MES DX (MES SA DX) cells, multidrug resistant, read-out: Cytotoxic activity IC50
# [4] = solubility of the product in solvents; assay type: physicochemical; details: e.g., MeOH, DMSO, DCM, CHCl3, MeCN
# Description: To a stirred solution of compound 108 (9.0 mg, 9.0 μmol, 1.0 equiv) in DMF (300 μL) and H2O (2.3 μl, 130 μmol, 14 equiv) was added TASF (12 mg, 45 μmol, 5.0 equiv) and the reaction mixture was heated at 40° C. and stirred for 48 h. The resulting mixture was filtered through a small silica pad (10 cm, SiO2, hexanes:EtOAc 1:1→0:1). The resulting fractions containing the desired products were combined, concentrated and purified by flash column chromatography (SiO2, hexanes:EtOAc 1:1→1:4→0:1) to yield bis-(cp-thiazolyl)-disorazole B1 (7, 3.0 mg, 4.2 μmol, 46% yield) as a white foam. […] 86: Rf=0.15 (hexanes:EtOAc, 2:3); IR (film): vmax=3439, 2922, 2852, 1714, 1629, 1212, 1104, 964 cm^−1; ^1H NMR (600 MHz, DMSO-d6 with DCM) δ 8.37 (s, 2H), 6.45-6.37 (m, 2H), 6.21 (d, J=11.9 Hz, 2H), 6.15 (t, J=11.8 Hz, 2H), 5.66 (dd, J=14.1, 11.0 Hz, 2H), 5.60-5.49 (m, 4H), 5.39-5.31 (m, 2H), 5.23-5.11 (m, 4H), 4.64 (d, J=4.6 Hz, 2H), 3.73 (t, J=5.3 Hz, 2H), 2.70 (q, J=12.0 Hz, 2H), 2.29-2.22 (m, 2H), 2.22-2.13 (m, 2H), 1.82-1.73 (m, 2H), 1.64 (d, J=4.9 Hz, 6H), 0.96 (s, 6H), 0.88 (s, 6H), 0.60 (dd, J=10.4, 4.9 Hz, 4H) ppm; ^13C NMR (151 MHz, DMSO-d6 with DCM) δ 163.45, 159.37, 145.61, 142.90, 133.36, 131.70, 131.53, 127.55, 126.37, 125.78, 123.99, 118.18, 76.27, 75.30, 41.33, 27.65, 23.24, 19.05, 19.03, 18.95, 17.63, 16.64. ppm; HR-MS (ESI-TOF): calcd for C44H54O6N2S2Na^+ [M+Na]^+: 793.3316. […]
# [5] = tested on: ovarian cancer cell lines; details: Jansen et al., 1994 and Elnakady et al., 2004, read-out: IC50 against ovarian cancer cell line; cited from earlier work
# lung cancer cell lines = details: Jansen et al., 1994 and Elnakady et al., 2004, read-out: IC50 against lung cancer cell line; cited from earlier work
# [6] = tested on: prostate cancer cell lines; details: Jansen et al., 1994 and Elnakady et al., 2004, read-out: IC50 against prostate cancer cell line; cited from earlier work
smiles,measurement,setting,value
"C/C=C/[C@H](O)C(C)(C)[C@@H]1C\C=C/C=C\C=C\[C@H](OC)Cc2nc(co2)C(=O)O[C@H](C(C)(C)[C@@H](O)/C=C/C)C/C=C\[C@H]2C[C@H]2/C=C/C=C\c2nc(co2)C(=O)O1 [compound 5, (2Z,4E,6S,8R,9Z,12S,20R,21E,23Z,25Z,28S)-12,28-Bis[(3S,4E)-3-hydroxy-2-methylhex-4-en-2-yl]-20-methoxy-13,17,29,33-tetraoxa-34,35-diazatetracyclo[29.2.1.1^15,18.0^6,8]pentatriaconta-1 (34),2,4,9,15,18 (35),21,23,25,31-decaene-14,30-dione]",IC50 at 72 h,[1],60 pM
same,IC50,[2]; Homo sapiens,110 pM
same,IC50,[3]; Homo sapiens,470 pM
"CC[C@H](C)[C@@H]([C@@H](CC(=O)N1CCC[C@H]1[C@H](OC)[C@@H](C)C(=O)N[C@H](C)[C@@H](O)c1ccccc1)OC)N(C)C(=O)[C@@H](NC(=O)[C@@H](NC)C(C)C)C(C)C [MMAE, monomethyl auristatin E] (H-[NMeV]V[Dil][Dolaproine]-X1)",IC50,[2],510 pM
same,IC50,[3],106000 pM
"C/C=C/[C@H](O)C(C)(C)[C@@H]1C/C=C\[C@H]2C[C@H]2/C=C/C=C\c2nc(cs2)C(=O)O[C@H](C(C)(C)[C@@H](O)/C=C/C)C/C=C\[C@H]2C[C@H]2/C=C/C=C\c2nc(cs2)C(=O)O1 [compound 86, (2Z,4E,6S,8R,9Z,12S,19Z,21E,23S,25R,26Z,29S)-12,29-Bis[(3S,4E)-3-hydroxy-2-methylhex-4-en-2-yl]-13,30-dioxa-17,34-dithia-35,36-diazapentacyclo[30.2.1.1^15,18.0^6,8.0^23,25]hexatriaconta-1 (35),2,4,9,15,18 (36),19,21,26,32-decaene-14,31-dione]",solubility in pure solvents,[4],insoluble in most pure solvents
"C/C=C/[C@H](O)C(C)(C)[C@@H]1C\C=C/C=C\C=C\[C@H](OC)Cc2nc(co2)C(=O)O[C@H](C(C)(C)[C@@H](O)/C=C/C)C/C=C\[C@H]2O[C@H]2/C=C/C=C\c2nc(co2)C(=O)O1 [Disorazole A1, (2Z,4E,6S,8R,9Z,12S,20R,21E,23Z,25Z,28S)-12,28-Bis[(3S,4E)-3-hydroxy-2-methylhex-4-en-2-yl]-20-methoxy-7,13,17,29,33-pentaoxa-34,35-diazatetracyclo[29.2.1.1^15,18.0^6,8]pentatriaconta-1 (34),2,4,9,15,18 (35),21,23,25,31-decaene-14,30-dione]",IC50,[5],4.9 pM
same,IC50,lung cancer cell lines,2.3 pM
same,IC50,[6],7.1 pM
